Measurements: paper PMC6370995, “Phase I study of PF‐04895162, a Kv7 channel opener, reveals unexpected hepatotoxicity in healthy subjects, but not rats or monkeys: clinical evidence of disrupted bile acid homeostasis” (Pharmacology Research & Perspectives, 2019)
Where two headings read alike, the source gives them in different places.

Legend:
healthy subjects [1] = test: Biomarkers of liver injury in residual plasma PK samples (miRNA122, total and fractionated bile acids); format: in vivo, human; settings: 300 mg BID
Protocol: Methodology for the following in vitro assays and biomarker determinations were as follows: THLE/HepG2 72 hour cytotoxicity assays based on ATP depletion;14 mitochondrial functional assessment based on state 3/4 respiration determination in the presence of glutamate/malate15, 16 or fatty acid oxidation inhibition using palmitate;17 BSEP inhibition in vesicles using tritium labeled taurocholic acid (TCA);18 human hepatocyte imaging assay determination of cell loss, mitochondrial membrane permeability, glutathione content, and production of reactive oxygen species;19 miRNA‐122 determination using QuantiGene 2.0 miRNA;20 human multidrug resistance protein 3 inhibition/activation (MDR3, encoded by ABCB4) was determined at Biotranex based on biotransformation of d 9‐choline to d 9‐phosphatidylcholine in human hepatocytes;21 and fractionated bile acid determinations were conducted by LC‐MS/MS methodology.22 These various assays have been published in detail and used by us in previous investigative works.2, 3, 21 Examination of human sodium/taurocholate cotransporting polypeptide (NTCP, encoded by SLC10A1) was determined based on uptake of tritium labeled TCA in CHO cells and human multidrug resistance‐associated protein 3/4 (MRP3/4, encoded by ABCC3/4) transporter inhibition in vesicles obtained from HEK293 cells using tritium labeled estradiol 17 β‐D‐glucuronide and dehydroepiandrosterone sulfate as substrates, respectively.
Three of eight treated healthy subjects consented for additional analyses of residual plasma PK samples for biomarkers of liver injury (e.g., miRNA122, total, and fractionated bile acids).

[2] = Phase 1 clinical study in healthy subjects: plasma pharmacokinetics and food effect; format: in vivo, human
Protocol: A randomized, double‐blind, third‐party open (i.e., subject and Investigator blind, and Sponsor open), placebo‐controlled study was conducted in healthy subjects to investigate the safety, tolerability, and pharmacokinetics of single and multiple oral doses of PF‐04895162 and to characterize the effect of food on the pharmacokinetics of a single oral dose of PF‐04895162. The study was conducted in accordance with the International Conference on Harmonization guideline for Good Clinical Practice and the principles of the Declaration of Helsinki and was approved by the local independent ethics committee. All subjects gave written informed consent prior to participation in the study. The study was planned as a parallel group, dose escalation study in four cohorts of 10 subjects each, however, the study was terminated prematurely and only Cohort 1 was conducted. After an initial screening visit to confirm eligibility, subjects in Cohort 1 (Figure 1) received single oral doses of 300 mg PF‐04895162 in Period 1 (under fasting conditions) and Period 2 (under fed conditions), and then 300 mg BID PF‐04895162 or placebo for 14 days (under fasting conditions) in Period 3 (the final dose was administered on the morning of Day 14). In Period 2, subjects were given a high‐fat breakfast 25 minutes prior to dosing which had to be consumed within 20 minutes. In all periods, subjects were fasted for at least 8 hours prior to morning dosing (except for breakfast in Period 2), and received lunch and dinner approximately 4 and 9‐10 hours after the morning dose, respectively. In Period 3, subjects were randomized so that eight subjects received PF‐04895162 and two subjects received placebo. The single doses in Periods 1 and 2, and the first dose in Period 3 were each separated by 3 days. A follow‐up visit was conducted 7‐14 days after the final dose. The ClinicalTrials.gov identifier was NCT01691274.
Safety was assessed throughout the study by monitoring adverse events, vital signs (blood pressure, pulse rate, and body temperature), 12‐lead ECGs, and physical examinations. Blood samples for safety laboratory assessments were collected prior to and 24 hours after the first single dose of PF‐04895162 (Day 1 and 2 of Period 1), and in Period 3 on Days 7, 14, and 21 (additional samples were also collected in response to emerging safety data). The Columbia suicide severity rating scale (C‐SSRS) was also conducted at screening or baseline and at the follow‐up visit. Blood samples for pharmacokinetic profiles of PF‐04895162 were collected from predose to 72 hours after each single dose (Periods 1 and 2), and up to 12 and 48 hours after morning dosing on Days 7 and 14, respectively, in Period 3. Additional trough samples were also collected on Days 5, 6, 12, and 13 of Period 3.
The sample size of 10 subjects per cohort was chosen based on practical considerations and was considered sufficient to provide adequate safety information at each dose level. To assess the effect of food on the pharmacokinetics of PF‐04895162, natural log transformed area under the plasma concentration‐time curve (AUC) from time 0 to the last measured time point (AUClast), AUC from time 0 extrapolated to infinity (AUCinf) and maximum plasma concentration (Cmax) were analyzed using a mixed effects model with treatment (fed or fasted) as a fixed effect and subject as a random effect. Estimates of the adjusted mean differences (Fed ‐ Fasted) and corresponding 90% confidence intervals (CIs) were obtained from the model. The adjusted mean differences and 90% CIs for the differences were exponentiated to provide estimates of the ratio of adjusted geometric means (Fed/Fasted) and 90% CIs for the ratios. No formal hypothesis testing was conducted.

cynomolgus monkeys = test: 9-Month Oral Toxicity Study in Cynomolgus Monkeys; format: in vivo, cynomolgus monkey
Protocol: (§1) A 28-day nasogastric toxicity study was conducted in cynomolgus monkeys at up to 100 mg/kg/day and a 9-month oral toxicity study with a 3-month interim sacrifice was conducted in cynomolgus monkeys at up to 100 mg/kg/day.

[3] = 9-Month Oral Toxicity Study in Cynomolgus Monkeys; format: in vivo, cynomolgus monkey; settings: cynomolgus monkey, plasma, oral, 100 mg/kg/day
Protocol: as §1

healthy subjects [4] = settings: cited from earlier work; for subjects with mild/moderate transaminase elevations: ref Pfizer data on file
[5] = HepG2 72 hour cytotoxicity assay based on ATP depletion; format: cell-based; settings: human, HepG2 cells; HepG2, after 72 hours
Text: […]

[6] = 300 mg single dose, high-fat breakfast vs fasted

O=C(Cc1ccc(F)cc1)Nn1c(C2CC2)nc2cc(F)ccc2c1=O [PF‐04895162, N‐(2‐cyclopropyl‐7‐fluoro‐4‐oxoquinazolin‐3(4H)‐yl)‐2‐(4‐fluorophenyl)ethanamide]
plasma miRNA122, Subject 8 (healthy subjects [1]; Period 3): elevated (>ULN) by Day 5 | fasting total bile acid levels of treated subjects (healthy subjects [1]; Period 3, normal range <10 μmol/L): within the normal range | hydrophobicity index of serum bile acids, Subject 6 (healthy subjects [1]; Day 7, AUC 0-12 h): 0.47 | hydrophobicity index of serum bile acids, Subject 8 (healthy subjects [1]; Day 7, AUC 0-12 h): 0.40 | hydrophobicity index of serum bile acids, Subject 10 (healthy subjects [1]; Day 7, AUC 0-12 h): 0.45 | AUCinf, Ratio (90% Confidence Interval) of Adjusted Means, Fed vs Fasted [2, 6]: 113.27 (102.99, 124.58) % | AUClast, Ratio (90% Confidence Interval) of Adjusted Means, Fed vs Fasted [2, 6]: 116.85 (106.90, 127.73) % | Cmax, Ratio (90% Confidence Interval) of Adjusted Means, Fed vs Fasted [2, 6]: 202.92 (178.28, 230.95) % | AUC ([2]; human, plasma, oral, 300 mg, 300 mg BID, Day 7, subject with the highest ALT values, read-out: AUCtau, Subject 8): 93000 ng·h/mL | Cmax ([2]; human, plasma, oral, 300 mg, 300 mg BID, Day 7, subject with the highest ALT values, read-out: Cmax, Subject 8 (converted)): 10800 ng/mL | AUC ([2]; human, plasma, oral, 300 mg, Period 1, 300 mg fasted, Day 1 (N = 10), 12 h interval, geometric mean (%CV), read-out: AUCtau): 40800 ng·h/mL | half-life ([2]; human, plasma, oral, 300 mg, Period 1, 300 mg fasted, Day 1 (N = 10), arithmetic mean ± SD, read-out: t½, terminal half-life (converted)): 7.88 ± 3.2 h | Cmax ([2]; human, plasma, oral, 300 mg, Period 1, 300 mg fasted, Day 1 (N = 10), geometric mean (%CV), read-out: Cmax): 4510 ng/mL | Tmax ([2]; human, plasma, oral, 300 mg, Period 1, 300 mg fasted, Day 1 (N = 10), median (range)): 5 h | Cmax ([2]; human, plasma, oral, 300 mg, Period 1, 300 mg fasted, Day 1 (N = 10), total concentration, read-out: Cmax): 12.7 µM | half-life ([2]; human, plasma, oral, 300 mg, Period 2, 300 mg fed, Day 1 (N = 10), arithmetic mean ± SD, read-out: t½, terminal half-life (converted)): 5.21 ± 1.17 h | Cmax ([2]; human, plasma, oral, 300 mg, Period 2, 300 mg fed, Day 1 (N = 10), geometric mean (%CV), read-out: Cmax): 9150 ng/mL | Tmax ([2]; human, plasma, oral, 300 mg, Period 2, 300 mg fed, Day 1 (N = 10), median (range)): 4 h | Cmax ([2]; human, plasma, oral, 300 mg, Period 2, 300 mg fed, Day 1 (N = 10), total concentration, read-out: Cmax): 25.8 µM | Cmax at 7 day ([2]; human, plasma, oral, 300 mg, Period 3, 300 mg BID fasted, Day 7 (N = 7), geometric mean (%CV)): 9430 ng/mL | AUC ([2]; human, plasma, oral, 300 mg, Period 3, 300 mg BID fasted, Day 7 (N = 7), geometric mean (%CV), read-out: AUCtau): 85200 ng·h/mL | Tmax at 7 day ([2]; human, plasma, oral, 300 mg, Period 3, 300 mg BID fasted, Day 7 (N = 7), median (range)): 2 h | Cmax at 7 day ([2]; human, plasma, oral, 300 mg, Period 3, 300 mg BID fasted, Day 7 (N = 7), total concentration): 26.5 µM | half-life at 14 day ([2]; human, plasma, oral, 300 mg, Period 3, 300 mg BID fasted, Day 14 (N = 7), arithmetic mean ± SD, read-out: t½, terminal half-life (converted)): 8.04 ± 3.29 h | Cmax at 14 day ([2]; human, plasma, oral, 300 mg, Period 3, 300 mg BID fasted, Day 14 (N = 7), geometric mean (%CV)): 8380 ng/mL | AUC ([2]; human, plasma, oral, 300 mg, Period 3, 300 mg BID fasted, Day 14 (N = 7), geometric mean (%CV), read-out: AUCtau): 71200 ng·h/mL | Tmax at 14 day ([2]; human, plasma, oral, 300 mg, Period 3, 300 mg BID fasted, Day 14 (N = 7), median (range)): 2 h | Cmax at 14 day ([2]; human, plasma, oral, 300 mg, Period 3, 300 mg BID fasted, Day 14 (N = 7), total concentration): 23.6 µM | half-life ([2]; human, plasma, oral, 300 mg, similar after single and multiple dosing, 300 mg, read-out: Mean terminal half-life (converted)): ~8 h | hematology, coagulation, clinical chemistry, macroscopic and microscopic pathology (cynomolgus monkeys; 9 months, up to 100 mg/kg/day): No effect of treatment | body weights, body temperatures, hematology, coagulation, clinical chemistry, ophthalmoscopic, electrocardiographic examinations (cynomolgus monkeys; 10, 30 and 100 mg/kg/day): No effect of treatment | liver weights (cynomolgus monkeys; males at 30 and 100 mg/kg/day, females at 100 mg/kg/day, after 9 months): increases in liver weights | mortality (cynomolgus monkeys; one female at 100 mg/kg/day): found dead on Day 45 | clinical findings (cynomolgus monkeys; sporadically in a few males and females at 100 mg/kg/day): Gross tremors and distended abdomens | Cmax ([3]; both sexes, after 9 months, males and females, read-out: total Cmax): ~29000 ng/mL | Cmax ([3]; studies >1 month in duration, read-out: total Cmax concentrations in the monkey): 81.6 µM | subjects with mild/moderate transaminase elevations (healthy subjects [4]; 250 mg BID for 7 days): one of 12 subjects | subjects with mild/moderate transaminase elevations (healthy subjects [4]; 300 mg BID for 7 days): one of 12 subjects | liver injury in healthy subjects (healthy subjects [4]; multiple doses up to 200 mg BID for 7 days): No evidence of liver injury | liver injury in healthy subjects (healthy subjects [4]; single dose studies up to 600 mg): No evidence of liver injury | IC50 at 72 h [5]: ~130 µM
